How the values were obtained:
[1] = test system: pancreatic adenocarcinoma (BxPC-3); assay: Anti-proliferation MTT assay, BxPC-3; assay type: cell-based; details: Homo sapiens, 24 hrs, read-out: cell viability
Procedure: (§1) Cancer cells were cultured on a dish, and the cells were treated with microbial zeaxanthin dissolved in dimethyl sulfoxide. After 24 hrs incubation, thiazolyl blue tetrazolium bromide was added to the cells and incubated for 4 hours. The medium was removed and the crystals were dissolved in dimethyl sulfoxide followed by measuring the absorbance at 590 nm. Cell viability=(Abs of cell treated zeaxanthin/Abs of cell with no treatment)*100%. Since xanthophylls have been reported to be associated with lower risk of cancers (Orjuela et al., (2005) Cancer Epidemiol Biomarkers Prey. 14:1433-40; Kelemen et al., (2006) Am J Clin Nutr. 83: 1401-10; Zhang et al., (2007) Nutr Cancer. 59:46-53; Tamimi et al., (2009) Cancer Res. 69: 9323-9; Lee et al., (2009) Cancer Epidemiol Biomarkers Prey. 18:1730-9), it is necessary to determine if the microbial zeaxanthin contains anti-cancer activity. […] For comparison, the cell viabilities of non-cancer cells are 105.6% for retinal pigmented epithelium cell (ARPE-19); 102.3% for embryonic fibroblast (BCRC60118) and 95.8% for human skin fibroblast (BCRC 60153). […] For comparison, the cell viabilities of non-cancer cells are 124.2% for retinal pigmented epithelium cell (ARPE-19); 101.2% for embryonic fibroblast (BCRC60118) and 99.8% for human skin fibroblast (BCRC 60153). […]

[2] = test system: ovarian cancer (TOV-112D); assay: Anti-proliferation MTT assay, TOV-112D; assay type: cell-based; details: Homo sapiens, TOV112D, 24 hrs, read-out: cell viability
Procedure: as §1

[3] = test system: bladder primary carcinoma (5637); assay: Anti-proliferation MTT assay, 5637; assay type: cell-based; details: Homo sapiens, 24 hrs, read-out: cell viability
Procedure: as §1

[4] = MTT assay, non-cancer cells BCRC60118; assay type: cell-based; details: human, embryonic fibroblast cells BCRC60118 (non-cancer), read-out: cell viability of non-cancer cells
Procedure: as §1

[5] = test system: colorectal adenocarcinoma (LS123); assay: Anti-proliferation MTT assay, LS123; assay type: cell-based; details: Homo sapiens, 24 hrs, read-out: cell viability
Procedure: as §1

[6] = test system: thyroid squamous cell carcinoma (SW579); assay: Anti-proliferation MTT assay, SW579; assay type: cell-based; details: Homo sapiens, 24 hrs
Procedure: as §1

[7] = MTT assay, non-cancer cells BCRC 60153; assay type: cell-based; details: human, skin fibroblast cells BCRC 60153 (non-cancer), read-out: cell viability of non-cancer cells
Procedure: as §1

[8] = MTT assay, non-cancer cells ARPE-19; assay type: cell-based; details: human, ARPE-19 retinal pigmented epithelium cells (non-cancer), read-out: cell viability of non-cancer cells
Procedure: as §1

[9] = test system: pharynx squamous cell carcinoma (FaDu); assay: Anti-proliferation MTT assay, FaDu; assay type: cell-based; details: Homo sapiens, 24 hrs
Procedure: as §1

[10] = test system: gastric adenocarcinoma (AGS); assay: Anti-proliferation MTT assay, AGS; assay type: cell-based; details: Homo sapiens, 24 hrs, read-out: cell viability
Procedure: as §1

[11] = test system: choriocarcinoma (JAR); assay: Anti-proliferation MTT assay, JAR; assay type: cell-based; details: Homo sapiens, 24 hrs, read-out: cell viability
Procedure: as §1

[12] = test system: breast adenocarcinoma (MCF7); assay: Anti-proliferation MTT assay, MCF7; assay type: cell-based; details: Homo sapiens, 24 hrs, read-out: cell viability
Procedure: as §1

[13] = test system: prostate carcinoma (PC-3); assay: Anti-proliferation MTT assay, PC-3; assay type: cell-based; details: Homo sapiens, 24 hrs, read-out: cell viability
Procedure: as §1

[14] = Lipid peroxidation inhibitory activity, ferric thiocyanate method; assay type: biochemical; details: 60 μg/ml; OD 500 nm; 24 hours incubation 37° C.
Procedure: Microbial zeaxanthin was dissolved in 0.2 M potassium phosphate buffer and mixed with linoleic acid emulsion mixture prepared by potassium phosphate buffer. After 24 hours incubation in 37° C., the mixture was added with 75% ethanol, ammonium thiocyanate, and iron(II) chloroide tetrahydrate. The absorbance at 500 nm was determined after 1 min incubation. Inhibtion activity=[1−(Abs of sample/Abs of blank)]*100%.

[15] = Lipid peroxidation inhibitory activity, conjugated diene method; assay type: biochemical; details: 30 μg/ml; OD 234 nm; 15 hour incubation 37° C.
Procedure: Microbial zeaxanthin was dissolved in 0.2 M potassium phosphate buffer and mixed with linoleic acid emulsion mixture prepared by potassium phosphate buffer. The absorbance of 234 nm was determined after 15 hour incubation in 37° C. Inhibition activity=[1−(Abs of sample/Abs of blank)]*100%.

[16] = cited from earlier work
[17] = test system: B16/F10 melanoma cells; assay: Melanin content in melanoma cells; assay type: cell-based; details: Mus musculus, OD 400 nm; for inhibition at 2 µg/mL: 2 μg/ml; for inhibition at 20 µg/mL: 20 μg/ml
Procedure: B16 F0 mouse melanoma cells were cultured on the dish. The cells were treated with microbial zeaxanthin dissolved in dimethyl sulfoxide. After treated for 24 hrs and 48 hrs, respectively, the medium was removed and the cells were washed with PBS and then dissolved in 1 N NaOH containing 10% DMSO. The relative melanin content was determined at OD400 nm.

[18] = Total antioxidant activity, TEAC (trolox equivalent antioxidant capacity) method; assay type: biochemical; details: OD 734 nm
Procedure: Microbial zeaxanthin was dissolved in 0.01M sodium phosphate buffer and mixed with 2,2′-azino-bis(3-ethylbenzthiazoline-6-sulphonic acid) containing potassium persulfate. The absorbance at 734 nm was determined after 30 min incubation. Inhibition activity=[1−(Abs of sample/Abs of blank)]*100%.

[19] = test system: Human skin fibroblast cells (CCD-966SK cell line); assay: Photoprotection activity: viability of UV-irradiated human skin fibroblast cells; assay type: cell-based; details: 15 min UV irradiation, determined at 24 hours
Procedure: Human skin fibroblast cells (CCD-966SK cell line) were cultured on the dish. The cells were treated with microbial zeaxanthin dissolved in dimethyl sulfoxide. After treated for 24 hours the dishes were irradiated UV for 15 min and the cells were incubated for 24 hours. The cells were detached by trypsin and counted by hemocytometer. The protection effect of microbial zeaxanthin on the viability of fibroblast cells is provided (FIG. 3).
Skin fibroblast cells, the essential cells of skin, are responsible for the production of collagen, a structural component of the skin (Stanley et al., (1985) J Invest Dermatol. 85:542-545; Olsen et al., (1989) J. Clin. Invest. 83: 791-795; Akagi et al., (1999) J. Invest. Dermatol. 113: 246-250). Collagen reduction is a biological phenomenon responsible for the wrinkled appearance found in the aged skin caused either intrinsic (chronologic aging) or extrinsic (e.g., photoaging: exposure to UV irradiation) (Burke et al., (1994) Exp Gerontol 29:37-53; Fisher et al., (1997) New Eng J Med 337:1419-1428; Fligiel et al., (2003) J Invest Dermatol. 120:842-848; Varani et al., (2006) Am J Pathol. 168:1861-8; Chauhan and Shakya, (2009) Indian J Dermatol Venereol Leprol. 75:463-8). […]

[20] = Antioxidant activity, DPPH free radical scavenging method; assay type: biochemical; details: OD 517 nm
Procedure: Microbial zeaxanthin was dissolved in methanol and mixed with 2,2-diphenyl-1-picrylhydrazyl in methanol. The absorbance at 517 nm was determined after 30 min incubation. Inhibition activity=[1−(Abs of sample/Abs of blank)]*100%.

[21] = Lipid peroxidation inhibitory activity, liposome-TBARS method; assay type: biochemical; details: OD 532 nm
Procedure: Microbial zeaxanthin was dissolved in methanol and mixed with liposome emulsion, iron(III) chloride, and ascorbic acid. After 2 hours water bath in 37° C. the mixture was added with butylated hydorxytoluene, thibarbituric acid, and trichloroacetic acid. After 20 min of water bath (100° C.), the mixture was chilled with ice. The absorbance at 532 nm was determined. MDA (malondialdehyde) inhibiton activity=[1−(Abs of sample/Abs of blank)]*100%.

## CC1=C(/C=C/C(C)=C/C=C/C(C)=C/C=C/C=C(C)/C=C/C=C(C)/C=C/C2=C(C)C[C@@H](O)CC2(C)C)C(C)(C)C[C@H](O)C1 (stereo in doubt) [microbial zeaxanthin, 4-[18-(4-hydroxy-2,6,6-trimethyl-1-cyclohexenyl)-3,7,12,16-tetramethyl-octadeca-1,3,5,7,9,11,13,15,17-nonaenyl]-3,5,5-trimethyl-cyclohex-3-en-1-ol]
[1]; 30 μg/ml
  viability at 30 µg/mL: 75.6%
[1]; 60 μg/ml
  viability at 60 µg/mL: 33.4%
[2]; 30 μg/ml
  viability at 30 µg/mL: 70.3%
[2]; 60 μg/ml
  viability at 60 µg/mL: 20.3%
[3]; 30 μg/ml
  viability at 30 µg/mL: 45.9%
[3]; 60 μg/ml
  viability at 60 µg/mL: 16.4%
[4]; 30 μg/ml
  viability at 24 h, 30 μg/ml: 102%
[4]; 60 μg/ml
  viability at 24 h, 60 μg/ml: 101%
[5]; LS-123, 30 μg/ml
  viability at 30 µg/mL: 72.3%
[5]; LS-123, 60 μg/ml
  viability at 60 µg/mL: 75.3%
[6]; 30 μg/ml
  viability at 30 µg/mL: 70.9%
[6]; 60 μg/ml
  viability at 60 µg/mL: 71.7%
[7]; 30 μg/ml
  viability at 24 h, 30 μg/ml: 95.8%
[7]; 60 μg/ml
  viability at 24 h, 60 μg/ml: 99.8%
[8]; 30 μg/ml
  viability at 24 h, 30 μg/ml: 106%
[8]; 60 μg/ml
  viability at 24 h, 60 μg/ml: 124%
[9]; 30 μg/ml
  viability at 30 µg/mL: 72.6%
[9]; 60 μg/ml
  viability at 60 µg/mL: 28.5%
[10]; 30 μg/ml
  viability at 30 µg/mL: 57.3%
[10]; 60 μg/ml
  viability at 60 µg/mL: 40.1%
[11]; 30 μg/ml
  viability at 30 µg/mL: 72.1%
[11]; 60 μg/ml
  viability at 60 µg/mL: 40%
[12]; 30 μg/ml
  viability at 30 µg/mL: 78.7%
[12]; 60 μg/ml
  viability at 60 µg/mL: 61.6%
[13]; 30 μg/ml
  viability at 30 µg/mL: 74%
[13]; 60 μg/ml
  viability at 60 µg/mL: 67.7%

## CC1=C[C@H](O)CC(C)(C)[C@H]1/C=C/C(C)=C/C=C/C(C)=C/C=C/C=C(C)/C=C/C=C(C)/C=C/C1=C(C)C[C@@H](O)CC1(C)C [lutein, reference compound]
[14]
  lipid peroxidation inhibitory activity (ferric thiocyanate method): 68.6%
[15]
  lipid peroxidation inhibitory activity (conjugated diene method): 68.7%

## CC1=C(/C=C/C(C)=C/C=C/C(C)=C/C=C/C=C(C)/C=C/C=C(C)/C=C/C2=C(C)C[C@@H](O)CC2(C)C)C(C)(C)C[C@H](O)C1 [microbial zeaxanthin, 4-[18-(4-hydroxy-2,6,6-trimethyl-1-cyclohexenyl)-3,7,12,16-tetramethyl-octadeca-1,3,5,7,9,11,13,15,17-nonaenyl]-3,5,5-trimethyl-cyclohex-3-en-1-ol]
[16]; chloroform
  Solubility in chloroform: soluble giving a clear intensive orange-red
[16]; ethanol
  Solubility in ethanol: sparingly
[16]; water
  Solubility in water: insoluble
[17]; 24 hrs
  inhibition at 2 µg/mL: 6.74%
  inhibition at 20 µg/mL: 22.7%
[17]; 48 hrs
  inhibition at 2 µg/mL: 32.5%
  inhibition at 20 µg/mL: 36.7%
[18]; 62.5 μg/ml
  inhibition on absorbance (TEAC): 15.68%
[18]; 125 μg/ml
  inhibition on absorbance (TEAC): 28.13%
[18]; 250 μg/ml
  inhibition on absorbance (TEAC): 53.35%
[18]; 500 μg/ml
  inhibition on absorbance (TEAC): 91.22%
[19]; 20 μg/ml
  cell viability increased as compared to no zeaxanthin treatment: 18.9%
[19]; 50 μg/ml
  cell viability increased as compared to no zeaxanthin treatment: 33.7%
[14]
  lipid peroxidation inhibitory activity (ferric thiocyanate method): 66.9%
[20]; 62.5 μg/ml
  inhibition on absorbance (DPPH): 10.02%
[20]; 125 μg/ml
  inhibition on absorbance (DPPH): 13.04%
[20]; 250 μg/ml
  inhibition on absorbance (DPPH): 30.18%
[20]; 500 μg/ml
  inhibition on absorbance (DPPH): 48.20%
[20]; 1000 μg/ml
  inhibition on absorbance (DPPH): 96.69%
[15]
  lipid peroxidation inhibitory activity (conjugated diene method): 67.4%
[21]; 125 μg/ml
  inhibition on free MDA formation: 55.23%
[21]; 250 μg/ml
  inhibition on free MDA formation: 61.05%
[21]; 500 μg/ml
  inhibition on free MDA formation: 71.16%
[21]; 1000 μg/ml
  inhibition on free MDA formation: 78.45%
[21]; 2000 μg/ml
  inhibition on free MDA formation: 80.75%
